In data set [1] the test system is perforin. In words: NK cell perforin production. Format: cell-based, human. The following applies: inhibitor 40 μM/mL added 1 hour prior to lenalidomide and IL-2. As for the experimental part:
(§1) To determine whether lenalidomide enhances IFN-γ production, the following assay was performed. Human IgG (Sigma), at a concentration of 100 μg/mL was coated onto 96-well, flat-bottom plates at 4° C. overnight. The unbound IgG was then washed away. […] Lenalidomide (Revlimid®, Celgene Corporation, Summit, N.J.) was added to the wells in the concentration range of 0.008-5 μM. After a 48-hour incubation, the supernatants were harvested and interferon-gamma (IFN-γ), as well as granzyme B and perforin levels were measured.

Data set [2] concerns granzyme B. In words: NK cell granzyme B production. The following applies: inhibitor 40 μM/mL added 1 hour prior to lenalidomide and IL-2. Type of data set: cell-based, human. The protocol: as §1
In data set [3] the test system is Rituximab-treated target cells. In words: ADCC in the presence of anti-Fas-L or granzyme inhibitor. The following applies: lenalidomide plus Rituximab. Format: cell-based. From the text: Lenalidomide addition had no effect on perforin production, however (FIGS. 6B and 6C).
Data set [4] relates to Rituximab-coated CD20+ Raji cells. In words: Monocyte-mediated lysis (ADCC) of Rituximab-coated Raji cells. Format: cell-based, human. The protocol: NK cells and monocytes were isolated from fresh, buffy-coated, whole blood by 30-minute incubation with RossetteSep cocktail (StemCell Technologies, Inc.) followed by Ficoll-Hypaque density gradient centrifugation. CD56+ NK cells were isolated to ˜85% purity and CD14+ monocytes were isolated to ˜80% purity as determined by flow cytometry.
(§2) Preparation of Rituximab-coated target cancer cells: Various NHL cell lines (Namalwa, Raji, Farage, and Jeko-1) were treated with 20 μg/mL Rituximab (Rituximab, Genentech, Inc.) for 30 minutes at 37° C. Excess unbound Rituximab was then removed by a washing step.
(§3) Cytotoxicity analysis: NK cell cytotoxicity against the tumor cell lines was analyzed using a standard lactate dehydrogenase release assay (CytoTox 96 Non-radioactive Cytotoxicity Assay, Promega) to measure ADCC in a 50 μL aliquot of supernatant. The experimental release was corrected by subtraction of the spontaneous release of effector cells at the corresponding dilution. Spontaneous release from target cells alone was <15% of the maximum release as determined with target cells lysed in 1% Triton X-100.
(§4) Determination of effector: target ratio: Specific lysis for each effector-to-target (E:T) cell ratio was calculated using the following formula: % specific lysis=([experimental release−spontaneous release]/[maximum release−spontaneous release])×100.
To evaluate monocyte ADCC, similar methods were used to prepare the monocytes.

The subject of data set [5] is Rituximab-coated Raji cells. In words: ADCC assay: NK cell specific lysis of Rituximab-coated Raji cells. Type of data set: cell-based, human. As for the experimental part: (§5) Preparation of NK cells: Purified NK cells (5×10^4) were seeded in 96-well U-bottom plates in 100 μL of 10% RPMI-1640 medium, supplemented with human AB+ serum. […] The cells were then incubated at 37° C. overnight.
as §2
Addition of Rituximab-coated target cells to NK cells: The Rituximab-coated target cells (5×103/100 μL/well) were added to the pretreated effector NK cells at a ratio of 10:1. The cells were then co-incubated for 4 hours at 37° C.
as §3, §4
Enhancement of NK cell cytotoxicity by immunomodulatory compounds lenalidomide and pomalidomide was assessed following procedures substantially similar to those described in Section 6.3, above.

Data set [6] relates to pERK. In words: Immunoblot analysis of pERK. Format: cell-based. The note with it: IL-12 plus IgG. The protocol:
(§6) FIG. 7 is a panel of bar graphs showing the quantitation of an immunoblot comparison of cells treated with either IL-12 alone, IgG alone, IL-12 plus IgG, or IL-12 plus IgG plus lenalidomide (at 0.1 μM to 10 μM).
(§7) Additionally, administration of the immunomodulatory compound lenalidomide was capable of increasing both pPLC-γ2 and pERK levels (FIGS. 7B and 7C). Increase in the levels of these proteins were also observed in connection with pomalidomide (FIGS. 13A and 13B). PLC-γ2 is involved in the maturation and activation of NK cells and triggers the release of lytic granules (Regunathan et al., 2006, Jour. Immunol 175:749-754, which is incorporated by reference herein in its entirety). PLC-γ2 also induces IFN-γ production and is necessary for cytotoxicity and chemokine production.
A general note: In western blotting, separated proteins are transferred to a membrane and probed.

Data set [7] has as its system Fas-L. In words: Fas-L expression on CD56+ NK cells (flow cytometry). Type of data set: cell-based, human. The following applies: FIG. 12. As for the experimental part: Cytometry was undertaken on 50 μL samples containing 1×10^6 cells/mL in washing buffer, 2% FBS with 0.1% NaN3 in PBS. Fluorochrome-conjugated antibodies, unconjugated antibodies, and isotype control mAb were obtained from PharMingen (San Diego, Calif.). The cells were stained with anti-CD56-PE, anti-FasL-FITC or isotype control mAb (1 μg/10^6 cells), and analyzed by flow cytometry according to the manufacturer's instructions.
Background: Flow cytometry measures light scatter and fluorescence of single cells or particles in a stream.

Data set [8] has as its system Cetuximab-coated HCT-116 cells. In words: NK cell cytotoxicity against Cetuximab-coated HCT-116 cells. Type of data set: cell-based, human. The following applies: presence of IL-2.
For data set [9], the system named is Trastuzumab-coated SK-BR-3 cells. Description: NK cell cytotoxicity against Trastuzumab-coated SK-BR-3 cells. Format: cell-based, human.
The test system of data set [10] is NK cells. Description: NK cell chemokine/cytokine production in response to Trastuzumab-coated SK-BR3 cells. Format: cell-based, human. The protocol:
As shown herein, immunomodulatory compounds, either alone or in combination with other agents, can alter the expression of several growth factors.
The effects of immunomodulatory compounds lenalidomide and pomalidomide on NK cell chemokine/cytokine production in response to Trastuzumab-coated SK-BR3 cells were assessed using procedures substantially similar to those described in Section 6.6., above.

Data set [11] relates to pPLC-γ2. Description: Immunoblot analysis of pPLC-γ2. Type of data set: cell-based. The note with it: IL-12 plus IgG. The protocol: as §6, §7
Data set [12] relates to Src homology-2 containing inositol 5′-phosphatase 1 (phospho-SHIP-1). In words: Immunoblot analysis of phospho-SHIP-1. Format: cell-based. The following applies: IL-12 plus IgG; lenalidomide 10 μM. As for the experimental part:
as §6
SHIP-1 is a negative regulator of cell proliferation, survival, and activation and also a negative regulator of Fc-γ and cytokine receptor-mediated signaling (Parihar et al., 2005, Cancer Res. 65:9099-9107). The inhibition of phospho-SHIP-1 increases IFN-γ release following NK cell stimulation with IgG and IL-12 (Parihar et al., 2005, Cancer Res. 65:9099-9107, which is incorporated by reference herein in its entirety) and thus may contribute to the mechanism of action of lenalidomide.

Data set [13] concerns Rituximab-coated CD20+ Jeko-1 (mantle cell lymphoma) cells. In words: ADCC assay: NK cell-mediated killing of Rituximab-coated CD20+ Jeko-1 cells. Type of data set: cell-based, human. As for the experimental part: as §5, §2
[…] The cells were then co-incubated for 4 hours at 37° C.
as §3, §4

[14] abbreviates: presence of immobilized IgG and IL-2.

Peptide text beside a SMILES is read from it.

We go through three molecules from patent US20100098657A1, “Method of Treating Cancer with Immunomodulatory Compounds and IgG” (priority 2007, published 2010).

`CC[C@H](C)[C@H](NC(C)=O)C(=O)N[C@@H](CCC(=O)O)C(=O)N[C@H](C(=O)N[C@H](C=O)CC(=O)O)[C@@H](C)O` [granzyme B inhibitor II] (Ac-IETD-aldehyde): the “effect on IL-2-stimulated perforin production” value in data set [1] is “inactive”. In [2], the “effect on IL-2 stimulated granzyme B production” value is on record as “abrogated”. In addition, the “prevention of ADCC” value in [3] was “totally prevented”.

As to `Nc1cccc2c1C(=O)N(C1CCC(=O)NC1=O)C2=O` (stereo not drawn) [pomalidomide, 1,3-dioxo-2-(2,6-dioxopiperidin-3-yl)-4-aminoisoindoline], the monocyte-mediated lysis result in data set [4] (data not shown) is “enhance”. Besides, the NK cell cytotoxicity result in [5] (presence of IL-2 (FIG. 8B/9B)) is “significantly increases”. Moreover, the NK cell cytotoxicity entry in [5] (presence of IL-12 (FIG. 8E/9E)) is recorded as “significantly increases”. Besides, in data set [6], the pERK levels entry is reported as “Increase”. In addition, the “NK cell Fas-L expression, results compared with lenalidomide” value in [7] is “similar”. The NK cell cytotoxicity result in data set [8] is “significantly increases”. In data set [9] (presence of IL-2), the NK cell cytotoxicity result is “significantly increases”. In addition, in [9] (presence of IL-12), the NK cell cytotoxicity entry is “significantly increases”. Also, in data set [10] (compound alone), the “production of any chemokines/cytokines” value is on record as “did not induce”. Further, in data set [10] (setting [14]), the “production of GM-CSF” value is on record as “dose-dependently enhanced”, the “production of IL-8” value is on record as “dose-dependently enhanced”, the “production of IP-10” value is reported as “dose-dependently enhanced” and the “production of MCP-1” value is “dose-dependently enhanced”. Further, in data set [10] (setting [14]), the “production of MIP-1α” value was “dose-dependently enhanced”, the “production of MIP-1β” value is reported as “not” and the “production of RANTES” value is “dose-dependently enhanced”. For the same molecule, the pPLC-γ2 levels entry in data set [11] is “Increase”. Also, the “levels of phospho-SHIP-1” value in [12] is “decreased”.

Take “Rituximab: anti-CD20 antibody Rituximab (Rituxan®)”: the maximum killing activity in data set [4] (Rituximab-coated cells, no immunomodulatory compound, E:T 50:1) is reported as roughly 30%. Moreover, the NK cell-mediated killing in [13] (Rituximab-coated cells without lenalidomide, E:T 50:1) is 70%. Moreover, the “increase in tumor cell killing above background” value in data set [13] (single agent, background killing=40%) was “approximately 30%”.
